# Results as given in the supplement of paper PMC10307832.
# What was measured:
# Assay in all cases: relative viability (nuclei count vs DMSO), 5 days (fraction); higher = more cells survive
# NCI-H1993 = test system: NCI-H1993
# Summary of the method: (§1)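 Lung cancer cell lines were pin-tool dosed in 1536-well plates on the day after seeding, with either a lone drug or a fixed anchor-drug dose plus five library-drug doses (not always all listed) in √10 steps. Nuclei were counted on 4× images after 5 days. Relative viability is the ratio of treated-well to vehicle-well nuclei counts, with each value a median of duplicate plates.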
# NCI-H23 = test system: NCI-H23
# Summary of the method: as §1
# NCI-H2170 = test system: NCI-H2170
# Summary of the method: as §1
# NCI-H2228 = test system: NCI-H2228
# Summary of the method: as §1
# SK-LU-1 = test system: SK-LU-1
# Summary of the method: as §1
# NCI-H650 = test system: NCI-H650
# Summary of the method: as §1
# SW 1573 = test system: SW 1573
# Summary of the method: as §1
# SK-MES-1 = test system: SK-MES-1
# Summary of the method: as §1
# NCI-H1734 = test system: NCI-H1734
# Summary of the method: as §1
# RERF-LC-KJ = test system: RERF-LC-KJ
# Summary of the method: as §1
# HCC-827 = test system: HCC-827
# Summary of the method: as §1
# UMC-11 = test system: UMC-11
# Summary of the method: as §1
smiles,measurement,setting,value
CCNC(=O)c1noc(-c2cc(C(C)C)c(O)cc2O)c1-c1ccc(CN2CCOCC2)cc1 [Luminespib] + CC(=O)Nc1cccc(-n2c(=O)n(C3CC3)c(=O)c3c(Nc4ccc(I)cc4F)n(C)c(=O)c(C)c32)c1 [Trametinib] (partner 0.02 µM),relative viability,NCI-H1993; first compound 0.002 µM,0.562
same,relative viability,NCI-H1993; first compound 0.006325 µM,0.424
same,relative viability,NCI-H1993; first compound 0.02 µM,0.488
same,relative viability,NCI-H1993; first compound 0.06325 µM,0.461
same,relative viability,NCI-H1993; first compound 0.2 µM,0.474
same,relative viability,NCI-H23; first compound 0.002 µM,0.397
same,relative viability,NCI-H23; first compound 0.006325 µM,0.424
same,relative viability,NCI-H23; first compound 0.02 µM,0.333
same,relative viability,NCI-H23; first compound 0.06325 µM,0.13
same,relative viability,NCI-H23; first compound 0.2 µM,0.156
same,relative viability,NCI-H2170; first compound 0.002 µM,0.915
same,relative viability,NCI-H2170; first compound 0.006325 µM,0.932
same,relative viability,NCI-H2170; first compound 0.06325 µM,0.896
same,relative viability,NCI-H2170; first compound 0.2 µM,0.841
same,relative viability,NCI-H2228; first compound 0.002 µM,0.512
same,relative viability,NCI-H2228; first compound 0.006325 µM,0.336
same,relative viability,NCI-H2228; first compound 0.02 µM,0.133
same,relative viability,NCI-H2228; first compound 0.06325 µM,0.0941
same,relative viability,NCI-H2228; first compound 0.2 µM,0.106
same,relative viability,SK-LU-1; first compound 0.002 µM,0.478
same,relative viability,SK-LU-1; first compound 0.006325 µM,0.371
same,relative viability,SK-LU-1; first compound 0.02 µM,0.314
same,relative viability,SK-LU-1; first compound 0.06325 µM,0.178
same,relative viability,SK-LU-1; first compound 0.2 µM,0.185
same,relative viability,NCI-H650; first compound 0.002 µM,1.06
same,relative viability,NCI-H650; first compound 0.006325 µM,0.881
same,relative viability,NCI-H650; first compound 0.02 µM,0.629
same,relative viability,NCI-H650; first compound 0.06325 µM,0.262
same,relative viability,NCI-H650; first compound 0.2 µM,0.086
same,relative viability,SW 1573; first compound 0.002 µM,0.604
same,relative viability,SW 1573; first compound 0.006325 µM,0.483
same,relative viability,SW 1573; first compound 0.02 µM,0.198
same,relative viability,SW 1573; first compound 0.06325 µM,0.105
same,relative viability,SW 1573; first compound 0.2 µM,0.096
same,relative viability,SK-MES-1; first compound 0.002 µM,0.551
same,relative viability,SK-MES-1; first compound 0.006325 µM,0.469
same,relative viability,SK-MES-1; first compound 0.02 µM,0.576
same,relative viability,SK-MES-1; first compound 0.06325 µM,0.177
same,relative viability,SK-MES-1; first compound 0.2 µM,0.166
same,relative viability,NCI-H1734; first compound 0.002 µM,0.65
same,relative viability,NCI-H1734; first compound 0.006325 µM,0.586
same,relative viability,NCI-H1734; first compound 0.02 µM,0.579
same,relative viability,NCI-H1734; first compound 0.06325 µM,0.199
same,relative viability,NCI-H1734; first compound 0.2 µM,0.172
same,relative viability,RERF-LC-KJ; first compound 0.002 µM,0.867
same,relative viability,RERF-LC-KJ; first compound 0.006325 µM,0.903
same,relative viability,RERF-LC-KJ; first compound 0.02 µM,0.711
same,relative viability,RERF-LC-KJ; first compound 0.06325 µM,0.437
same,relative viability,RERF-LC-KJ; first compound 0.2 µM,0.21
same,relative viability,HCC-827; first compound 0.002 µM,0.533
same,relative viability,HCC-827; first compound 0.006325 µM,0.506
same,relative viability,HCC-827; first compound 0.02 µM,0.279
same,relative viability,HCC-827; first compound 0.06325 µM,0.154
same,relative viability,HCC-827; first compound 0.2 µM,0.15
same,relative viability,UMC-11; first compound 0.002 µM,0.496
same,relative viability,UMC-11; first compound 0.006325 µM,0.685
same,relative viability,UMC-11; first compound 0.02 µM,0.308
